The target of this test is T1, TNF / human TNF (TNF/TNFR1 ELISA) (Homo sapiens, UniProt P01375).
T1 construct: recombinant human TNF (soluble; biologically active homotrimer); with Tumor necrosis factor receptor superfamily member 1A
The test can be described thus: ELISA, TNF binding to TNFR1.

As usually defined, the IC50 is the concentration at which inhibition is half-maximal. A higher IC50 goes with weaker potency in that assay.

T1 sequence (P01375 77-233): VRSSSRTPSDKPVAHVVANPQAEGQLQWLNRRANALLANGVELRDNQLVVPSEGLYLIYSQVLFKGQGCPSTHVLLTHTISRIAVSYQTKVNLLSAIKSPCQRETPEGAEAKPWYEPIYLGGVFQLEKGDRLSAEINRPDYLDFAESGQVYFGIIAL

On to `C[C@@H]1O[C@@H](Oc2c(-c3ccc(O)cc3)oc3cc(O)cc(O)c3c2=O)[C@H](O[C@@H]2O[C@H](COC(=O)/C=C/c3ccc(O)cc3)[C@@H](O)[C@H](O)[C@H]2O)[C@H](O)[C@H]1O` [A25, [(2R,3S,4S,5R,6S)-6-[(2S,3R,4R,5R,6S)-2-[5,7-dihydroxy-2-(4-hydroxyphenyl)-4-oxochromen-3-yl]oxy-4,5-dihydroxy-6-methyloxan-3-yl]oxy-3,4,5-trihydroxyoxan-2-yl]methyl(E)-3-(4-hydroxyphenyl)prop-2-enoate], for which the IC50 turned out to be 4.1 ± 1.7 µM. Regarding `Oc1ccc([C@@H]2c3c(O)cc4c(c3[C@H]3[C@H](c5ccc(O)cc5)c5c(O)cc6c(c5[C@@H]23)[C@@H](c2cc(O)cc(O)c2)[C@H](c2ccc(O)cc2)O6)[C@@H](c2cc(O)cc(O)c2)[C@H](c2ccc(O)cc2)O4)cc1` [A11, (1R,2R,6R,6aR,7R,8R,12R,12aR)-1,7-Bis(3,5-dihydroxyphenyl)-2,6,8,12-tetrakis(4-hydroxyphenyl)-1,2,6,6a,7,8,12,12a-octahydrofuro[2″,3″:6′,7′]indeno[1′,2′:2,3]indeno [5,4-b]furan-5,11-diol], the IC50 came out at 3.3 ± 0.9 µM.

The values are drawn from PMC6068282, “In Silico Discovery of Plant-Origin Natural Product Inhibitors of Tumor Necrosis Factor (TNF) and Receptor Activator of NF-κB Ligand (RANKL)” (Frontiers in Pharmacology, 2018).
